Each structure is given as a SMILES string. Read-outs that look alike come from different tables or passages of the source.

The series concerns HCV genotype 1b (Con1) replicon cells Huh-luc/neo-ET. The method, then: Reversibility of the action of compound 6 against genotype 1b HCV replicon. Huh-luc/neo-ET cells were seeded at a density of 2×10^5 cells per well in a 6-well plate, and were incubated for 12 days with DMSO control or up to 1 μM of compound 6 in the absence of G418. Cells were split every three days when media and compounds were replenished, and samples were collected for RNA quantification. compound 6 was removed on Day 12 when cells were split and cultured in the presence of 250 μg/ml of G418. Replicon cells were continuously monitored for another 12 days, during which cells were split and sampled whenever reaching confluence. Cell viability was measured by CellTiter-Glo luminescent cell viability assay following manufacturer's procedures (Promega), and the HCV RNA was quantitated by qRT-PCR and normalized as described above.
The goal of anti-HCV treatment is to completely eliminate the virus from infected cells. In order to assess the reversibility of the antiviral action and the possibility of replicon clearance, we incubated Huhluc/neo-ET cells with increasing concentrations of compound 6 for […] free from G418 (FIG. 4). On Day 12 compound 6 was removed and 250 μgml G418 was reintroduced while the replicon RNA level and cell growth were monitored for another 12 days.

On to `O=C(O)c1cc(C(=O)O)cc(-c2ccc(-c3c4nc(c(-c5ccc(-c6cc(C(=O)O)cc(C(=O)O)c6)cc5)c5ccc([nH]5)c(-c5ccc(-c6cc(C(=O)O)cc(C(=O)O)c6)cc5)c5nc(c(-c6ccc(-c7cc(C(=O)O)cc(C(=O)O)c7)cc6)c6ccc3[nH]6)C=C5)C=C4)cc2)c1` [Compound 6, Meso-teftakis-(3,5-dicarboxy-4,4′-biphenyl)porphyrin], for which the “cells surviving under G418” value is, setting by setting: (50 nM for 12 days, 6 days after the removal of inhibitor) 8.5%; (100 nM for 12 days, end of the experiment) 0.007%; (300 nM for 9 days, 15-day rebound period with G418) 0.4%. For the same compound, the replicon-positive cells rebounded (50 nM for 12 days, 12 days after removal of inhibitor) is on record as 13.1%. The “cell viability after G418 reintroduction” value (300 nM and 1 μM for 12 days, 9 days after coincubation with G418) is recorded as “no longer viable”. Also, for the setting “300 nM and above, after 12 days of exposure”, the “reduction in the HCV RNA levels” value is listed as “approximately 4.5 1o916”. Moreover, the replicon clearance result (1 μM for 9 days, 15-day rebound period with G418) is on record as “achieved complete “cure””. The “toxicity in cells during the 12-day treatment” value (up to 1 μM, 12 days) is “did not cause significant toxicity”.
